In patent US20230190743A1, “TREATMENT WITH ILEAL BILE ACID TRANSPORTER (IBAT) INHIBITORS FOR INCREASED EVENT-FREE SURVIVAL (EFS)” (Mirum Pharmaceuticals, Inc., priority 2021, published 2023):
Values joined by “and” are separate entries in the source; they are usually repeats but may differ in a detail not shown here. Equal values may be shown once.

What was measured:
Assay type in all cases: in vivo, human
patients with ALGS = assay: Phase 2 ICONIC trial, 48-week HRQoL analysis by ItchRO treatment response; parameters: key to Beta, ItchRO treatment response at week 48 Yes vs No, PedsQL Generic Core Scale / Beta, ItchRO treatment response at week 48 Yes vs No, Family Impact Scale / Beta, ItchRO treatment response at week 48 Yes vs No, Multidimensional Fatigue Scale: regression beta in HRQoL score points (0-100 scale), responders vs not
Method: A retrospective analysis was performed of 48-week data from the Phase 2 ICONIC trial, a study with a 4-week double-blind, placebo-controlled, randomized drug withdrawal period in patients with ALGS. Patients had moderate to severe pruritus as measured using a validated caregiver-reported Itch Reported Outcome (ItchRO) severity assessment tool (0=none to 4=very severe). Clinically meaningful pruritus response was defined as a ≥1 point reduction in the ItchRO, from baseline to week 48. HRQoL was assessed using the Pediatric Quality of Life Inventory Generic Core (PedsQL; 0-100 scale, 100=best quality of life), Family Impact (FI), and Multidimensional Fatigue (MF) scale scores, and were collected via caregiver. The minimal clinically important difference (MCID) for the HRQoL assessments is 5 points. A subset of individual items from the HRQoL scales were also independently selected for assessment with treatment response. HRQoL scores and selected items were assessed at baseline and week 48 and stratified by treatment response status. P-values were calculated using t-tests or ANOVAs. Multivariate linear regression models were used to assess the relationship between the mean change from baseline in HRQoL score (dependent variable) and an indicator for treatment response (independent variable), adjusting for baseline HRQoL. Adjustment for additional baseline covariates was also explored for the following variables: age, gender, bilirubin, rifampicin use, height z-score, weight z-score, ItchRO, and serum bile acid.

[1] = system: patients with BSEP deficiency (PFIC2); assay: INDIGO Phase 2 trial, HRQoL analysis by sBA treatment response at week 48; parameters: key to HRQoL score at week 48, PedsQL Generic Core Scale / HRQoL score at week 48, Multidimensional Fatigue Scale / HRQoL score at week 48, Family Impact Scale: HRQoL scale scores in points; MCID = 5 points; key to Beta, sBA treatment response at week 48 Yes vs No, Multidimensional Fatigue Scale / Beta, sBA treatment response at week 48 Yes vs No, Family Impact Scale: change from baseline in HRQoL score, in points (MCID 5 points); conditions: for 5-point change, Family Impact Scale / 5-point change, Multidimensional Fatigue Scale / 5-point change, PedsQL Generic Core Scale / 10-point change, Family Impact Scale / 10-point change, Multidimensional Fatigue Scale / 10-point change, PedsQL Generic Core Scale: baseline to week 48; for HRQoL score at week 48, Family Impact Scale / HRQoL score at week 48, Multidimensional Fatigue Scale / HRQoL score at week 48, PedsQL Generic Core Scale / HRQoL score change from baseline to week 48, Family Impact Scale: mean ± SD
Method: This retrospective analysis included data from patients with BSEP deficiency from the INDIGO Phase 2 open-label trial of MRX in children with PFIC. Pruritus was measured using a validated caregiver-reported Itch Reported Outcome (ItchRO) severity assessment tool (0=none to 4=very severe). Serum bile acid (sBA) response with MRX was defined as a >75% decrease from baseline or reduction to <102 μmol/L from baseline to week 48. HRQoL was assessed using the Pediatric Quality of Life Inventory Generic Core (PedsQL), Family Impact (FI), and Multidimensional Fatigue (MF) scale scores, and were collected via caregiver. The minimal clinically important difference (MCID) for the HRQoL assessments is 5 points. A subset of individual items from the HRQoL scales were also selected for assessment with treatment response. HRQoL was assessed at baseline and week 48 and scores were stratified by treatment response. P-values were calculated using t-test or ANOVA. Multivariate linear regression models were used to assess the relationship between mean change from baseline in HRQoL score and indicators for treatment response, adjusting for baseline HRQoL.

children with ALGS = assay: ICONIC study, correlation of pruritus intensity (ItchRO) with cholestasis biomarkers and quality of life
Text: This study evaluates how change in pruritus intensity correlates with change in cholestasis biomarkers in children with ALGS receiving maralixibat (ICONIC study; NCT02160782, described above). The goal of the present study is to characterize correlations between pruritus, as measured by the Itch-Reported Outcome (ItchRO) Observer tool, and multiple parameters, including sBA and sBA subspecies, autotaxin (ATX), and quality of life measures following maralixibat treatment in children with ALGS. Twenty-nine of the 31 enrolled participants completed 48 weeks of treatment, with 27 evaluated for this analysis.

[2] = over the 48 weeks, controlling for baseline score

## CCCCC1(CCCC)CS(=O)(=O)c2ccc(N(C)C)cc2[C@@H](c2ccc(OCc3ccc(C[N+]45CCN(CC4)CC5)cc3)cc2)[C@H]1O [maralixibat]
Patients with ALGS; ItchRO Non-Responders
  HRQoL at Week 48 (mean ± SD), Family Impact Scale: 54.7 ± 20.0
  HRQoL at Week 48 (mean ± SD), Multidimensional Fatigue Scale: 64.2 ± 15.1
  HRQoL at Week 48 (mean ± SD), PedsQL Generic Core Scale: 62.4 ± 14.5
  HRQoL change from baseline to Week 48 (mean ± SD), Family Impact Scale: 3.9 ± 7.8
  HRQoL change from baseline to Week 48 (mean ± SD), Multidimensional Fatigue Scale: −3.1 ± 19.8
  HRQoL change from baseline to Week 48 (mean ± SD), PedsQL Generic Core Scale: 1.2 ± 11.1
Patients with ALGS; ItchRO Responders
  HRQoL at Week 48 (mean ± SD), Family Impact Scale: 73.9 ± 19.6
  HRQoL at Week 48 (mean ± SD), Multidimensional Fatigue Scale: 76.2 ± 15.1
  HRQoL at Week 48 (mean ± SD), PedsQL Generic Core Scale: 70.4 ± 15.7
  HRQoL change from baseline to Week 48 (mean ± SD), Family Impact Scale: 17.8 ± 23.4
  HRQoL change from baseline to Week 48 (mean ± SD), Multidimensional Fatigue Scale: 25.8 ±23.0
  HRQoL change from baseline to Week 48 (mean ± SD), PedsQL Generic Core Scale: 11.6 ± 20.3
Patients with ALGS; multivariate regression, adjusted for baseline HRQoL, N = 21, CI −2.49, 30.32
  Beta, ItchRO treatment response at week 48 Yes vs No, Multidimensional Fatigue Scale: 13.92
Patients with ALGS; multivariate regression, adjusted for baseline HRQoL, N = 26, CI 1.01, 32.68
  Beta, ItchRO treatment response at week 48 Yes vs No, Family Impact Scale: 16.85
Patients with ALGS; multivariate regression, adjusted for baseline HRQoL, N = 27, CI −3.86, 21.38
  Beta, ItchRO treatment response at week 48 Yes vs No, PedsQL Generic Core Scale: 8.76
Patients with ALGS; non-responders, result in words
  HRQoL change from baseline to week 48 across all scales: No clinically meaningful change
Patients with ALGS; over the 48 weeks, controlling for baseline FI score
  average increase of Family Impact score, responders compared with non-responders: 17 points and 16.9 points
Patients with ALGS; over the 48 weeks, p=0.11
  average increase of Multidimensional Fatigue total score, responders compared with non-responders: 13.9 points
Patients with ALGS; over the 48 weeks, p=0.19
  average increase of PedsQL Generic Core Total Scale Score, responders compared with non-responders: 8.8 points
Patients with ALGS; responders vs non-responders
  Difference in change from baseline to week 48, HRQoL item Difficulty steeping through the night: 52.9
  Difference in change from baseline to week 48, HRQoL item Feeling tired: 40.1
  Difference in change from baseline to week 48, HRQoL item Feeling tired upon waking: 72.4
  Difference in change from baseline to week 48, HRQoL item Steeping a lot: 55.2
  Difference in change from baseline to week 48, HRQoL item Taking a lot of naps: 40.4
  Difference in change from baseline to week 48, HRQoL item Trouble sleeping: 45.4
Patients with ALGS; result in words
  pruritus at week 48 of the ICONIC study: significant improvements in pruritus
Patients with ALGS; week 48, 27 patients
  patients who achieved ItchRO treatment response (≥1 point reduction): 74%
[1]; at 48 weeks
  patients who achieved sBA treatment response: 6 patients
  patients who achieved sBA treatment response (>75% decrease from baseline or <102 μmol/L): 28.6%
[1]; multivariate regression, N = 16, CI 3.5, 41.1
  Beta, sBA treatment response at week 48 Yes vs No, Multidimensional Fatigue Scale: 22.3
[1]; multivariate regression, N = 20, CI −7.7, 19.4
  Beta, sBA treatment response at week 48 Yes vs No, Family Impact Scale: 5.8
[1]; [2]
  average increase of Multidimensional Fatigue scale score, sBA responders versus non-responders: 22 points
  mean increase of PedsQL score, sBA responders versus non-responders: 17 points
[1]; sBA Non-responders
  5-point change, Family Impact Scale: 1 (7.1) n (%)
  5-point change, Multidimensional Fatigue Scale: 3 (25.0) n (%)
  5-point change, PedsQL Generic Core Scale: 2 (15.4) n (%)
  10-point change, Family Impact Scale: 1 (7.1) n (%)
  10-point change, Multidimensional Fatigue Scale: 2 (16.7) n (%)
  10-point change, PedsQL Generic Core Scale: 2 (15.4) n (%)
  HRQoL score at week 48, Family Impact Scale: 62.7 ± 16.0
  HRQoL score at week 48, Multidimensional Fatigue Scale: 69.2 ± 18.5
  HRQoL score at week 48, PedsQL Generic Core Scale: 65.9 ± 13.8
  HRQoL score change from baseline to week 48, Family Impact Scale: −2.5 ± 9.8
[1]; sBA Responders
  5-point change, Family Impact Scale: 4 (66.7) n (%)
  5-point change, Multidimensional Fatigue Scale: 4 (100) n (%)
  5-point change, PedsQL Generic Core Scale: 4 (80.0) n (%)
  10-point change, Family Impact Scale: 4 (66.7) n (%)
  10-point change, Multidimensional Fatigue Scale: 4 (100) n (%)
  10-point change, PedsQL Generic Core Scale: 3 (60.0) n (%)
  HRQoL score at week 48, Family Impact Scale: 60.0 ± 15.5
  HRQoL score at week 48, Multidimensional Fatigue Scale: 76.0 ± 13.4
  HRQoL score at week 48, PedsQL Generic Core Scale: 79.3 ± 9.5
  HRQoL score change from baseline to week 48, Family Impact Scale: 8.0 ± 20.7
[1]; sBA non-responders
  patients with a change of ≥5 points in PedsQL Generic Core Total Scale Score: 15.4%
  patients with a ≥10-point change in PedsQL Multidimensional Fatigue Total Scale Score: 16.7%
[1]; sBA responders
  change in Family Impact Score from baseline to week 48: > 1.5 times the MCID
  patients with a change of ≥5 points in PedsQL Generic Core Total Scale Score: 80.0%
  patients with a ≥10-point change in PedsQL Multidimensional Fatigue Total Scale Score: 100%
Children with ALGS; at week 48
  overall average ItchRO score reduction: 1.6 points
Children with ALGS; one participant
  ItchRO score reduction of the one participant who normalized: −3.5 points
Children with ALGS; result in words
  pruritus, using ItchRO and CSS scores: significant and clinically meaningful improvements in pruritus
Children with ALGS; sBA reduction (%) 50, N 8
  Change in ItchRO score (points): −1.90 points
Children with ALGS; sBA reduction (%) 60, N 8
  Change in ItchRO score (points): −2.12 points
Children with ALGS; sBA reduction (%) 70, N 6
  Change in ItchRO score (points): −2.31 points
Children with ALGS; sBA reduction (%) 80, N 3
  Change in ItchRO score (points): −2.79 points
Children with ALGS; sBA reduction (%) 90, N 1
  Change in ItchRO score (points): −2.71 points
